Bounds are passed on as bounds.

For the test, the target named is JMJD2C (Homo sapiens (Human), UniProt Q9H3R0). Kind of test: JMJD2C TR-FRET enzyme inhibition assay. Format: biochemical. The following applies: H3K9me3-biotin peptide. From the text: This assay determines the ability of a test compound to inhibit Jarid1A, Jarid1B, and JMJD2C demethylase activity. Baculovirus expressed Jarid1A (GenBank Accession #NM_001042603, AA1-1090) was purchased from BPS Bioscience (Cat#50110). Baculovirus expressed Jarid1B (GenBank Accession #NM_006618, AA 2-751) was purchased from BPS Bioscience (Cat #50121) or custom made by MolecularThroughput. Baculovirus-expressed JMJD2C (GenBank Accession #BC143571, AA 2-372) was purchased from BPS Bioscience (Cat#50105).
Chain of JMJD2C (Q9H3R0 2-372): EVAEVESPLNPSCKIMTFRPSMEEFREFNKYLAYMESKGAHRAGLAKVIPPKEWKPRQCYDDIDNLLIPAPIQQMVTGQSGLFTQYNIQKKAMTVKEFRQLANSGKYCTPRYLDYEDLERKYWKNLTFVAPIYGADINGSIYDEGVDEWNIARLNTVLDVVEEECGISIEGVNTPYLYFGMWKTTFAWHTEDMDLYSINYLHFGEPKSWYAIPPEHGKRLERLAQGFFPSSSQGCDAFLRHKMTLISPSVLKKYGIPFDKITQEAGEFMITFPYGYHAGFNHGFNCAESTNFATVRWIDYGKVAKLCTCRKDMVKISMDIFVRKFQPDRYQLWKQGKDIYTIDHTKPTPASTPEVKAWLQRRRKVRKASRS
The ability of test compounds to inhibit the activity of JMJD2C was determined in 384-well plate format under the following reaction conditions: 0.3 nM JMJD2C, 300 nM H3K9me3-biotin labeled peptide (Anaspec cat #64360), 2 μM alpha-ketoglutaric acid in assay buffer of 50 mM HEPES, pH7.3, 0.005% Brij35, 0.5 mM TCEP, 0.2 mg/ml BSA, 50 μM sodium L-ascorbate, and 2 μM ammonium iron(II) sulfate. Reaction product was determined quantitatively by TR-FRET after the addition of detection reagent Phycolink Streptavidin-allophycocyanin (Prozyme) and Europium-anti-di-methylated histone H3 lysine 9 (H3K9me2) antibody (PerkinElmer) in the presence of 5 mM EDTA in LANCE detection buffer (PerkinElmer) at a final concentration of 50 nM and 1 nM, respectively.
The reaction mixture was incubated at room temperature for 30 min, and terminated by the addition of 6 μl of 5 mM EDTA in LANCE detection buffer containing 100 nM Phycolink Streptavidin-allophycocyanin and 2 nM Europium-anti-H3K9me2 antibody. Plates were read by EnVisionMultilabel Reader in TR-FRET mode (excitation at 320 nm, emission at 615 nm and 665 nm) after 1 hr incubation at rt. A ratio was calculated (665/615) for each well and fitted to determine inhibition constant (IC50).
“3-{[(6-chloro-1,2,3,4-tetrahydronaphthalen- 1-yl)methyl]-amino}pyridine-4- carboxylic acid [Example 68]” had an IC50 of 100 to 1000 nM.
Regarding “3-{[(6-chloro-1-hydroxy-1,2,3,4- tetrahydronaphthalen-1-yl)methyl]amino} pyridine-4-carboxylic acid [Example 67]”, the IC50 is 100 to 1000 nM.
With “3-{[(7-fluoro-3,4-dihydro-2H-chromen-4- yl)methyl]-amino}pyridine-4-carboxylic acid [Example 65]”, the IC50 is below 100 nM.

(Values after patent US10179769B2, “Histone demethylase inhibitors” (CELGENE QUANTICEL RESEARCH, INC., priority 2012, dated 2019).)
